From US20220154153A1, “NEW INHIBITORS OF LRRK2/PP1 INTERACTION” (Université de Paris, priority 2019, published 2022)
Entries after “also recorded” stand apart in the source; their conditions may differ.

How the values were obtained:
MDA-MB231 cells [1] = assay: Detection of apoptosis by Annexin-V-FITC staining in cancer cells; format: cell-based, human; settings: 25 μM peptide, 24 h of treatment
Procedure: Detection of Apoptosis by Annexin-V-FITC Staining
Apoptosis was determined using Annexin-V FITC (eBiosciences) as described by the manufacturer. Briefly, cells were washed in 1× binding buffer, centrifuged and resuspended in 100 μl of 1× binding buffer containing Annexin-V FITC and propidium iodide. After incubation for 15 min, cells were analyzed by flow cytometry. Data acquired by FACS Canto were analyzed with Diva 60 software. Each condition was analyzed in triplicate. The effect of peptide treatment was compared to untreated control cells.

LRRK2/PP1 interaction = assay: In vitro competition assay of LRRK2/PP1 interaction (LRRK2 immunoprecipitates from MDA-MB231 lysates, anti-PP1 Western blot); format: binding, human; settings: 1 mM peptide, 30 min, room temperature; compared with non-competed immunoprecipitates
Procedure: In Vitro Protein/Protein Interaction Competition
The PP1/LRRK2 interaction was competed using the peptides of the invention. Lysates from MDA-MB231 cells were immunoprecipitated with anti-LRRK2 antibody (overnight, 4° C.) and protein A/G Sepharose was added for 1 h at 4° C. The PP1/LRRK2 interaction was competed with 1 mM of the peptide for 30 min at room temperature. After several washing steps, immunoprecipitates were transferred to nitrocellulose and blotted with anti PP1 antibody (Santa Cruz Biotechnology). As internal control, the blot was also blotted with anti-LRRK2 antibody (Invitrogene).
Immunoprecipitation and Western Blotting
Cells (5×10^6) were lysed for 20 min at 4° C. in lysis buffer (50 mM Tris pH8, 1% NP40, 137 mM NaCl, 1 mM MgCl2, 1 mM CaCl2), 10% glycerol and protease inhibitor mixture). Lysates (500 μg) were immunoprecipitated with the appropriated antibody overnight at 4° C. and protein A/G sepharose was added for 1 h at 4° C. After washing with 1×TBST (20 mM Tris HCl pH7.5, 150 mM NaCl, 0.05% Tween 20) immunoprecipitates were separated by SDS-PAGE, transferred to nitrocellulose, blocked (5% non-fat dry milk in TBST) and incubated with the primary antibody (Santa Cruz Biotehnology). The membrane was washed and incubated with PO-conjugates secondary antibody (Dako). Protein detection was performed using the ECL system.

PBMC from CLL patients = assay: Internalization of FITC-labelled peptides in PBMC from chronic lymphocytic leukemia (CLL) patients (FACS); format: cell-based, human; settings: 4 h, 37° C.; for FITC labelled cells detected (FACS): PBMC of CLL, 50 μM FITC labelled peptide
Procedure: (§1) Isolation and Culture of Primary Cells
(§2) Fresh blood from healthy donors (HD) was obtained from Etablissement Francais du Sang. Chronic lymphocytic leukemia (CLL) patient samples were obtained from the Department of Hematology. Peripheral blood mononuclear cells (PBMC) from HD and CLL patients were prepared by Ficoll gradient centrifugation. Cells were maintained in RPMI 1640 supplemented with 10% of FCS, 1% non-essential amino acids, 1% Hepes, 1% sodium pyruvate and 1% glutamine. All the experimental protocols as well as the human blood samples isolation were approved by the Ethical Committee of the Hospital in accordance with the National Guide of the Ministry of Health.
(§3) In addition to cell lines, the internalization of the new peptides according to the invention was further tested in peripheral blood mononuclear cells (PBMC) from healthy donors and chronic lymphocytic leukemia (CLL) patients. PBMC from both were incubated with 50 μM of both peptides for 4 h at 37° C.

PBMC from healthy donors = assay: Internalization of FITC-labelled peptides in PBMC from healthy donors (FACS); format: cell-based, human; settings: 4 h, 37° C.; for FITC labelled cells detected (FACS): PBMC of healthy human, 50 μM FITC labelled peptide
Procedure: as §1, §2, §3

MDA-MB231 cells [2] = assay: Internalization of FITC-labelled peptides in MDA-MB231 cell line (FACS); format: cell-based, human; settings: different concentrations, 4 h, compared to peptide 13
Procedure: Quantification of Cellular Internalization
Human cell line MDA-MB231 was seeded in 24 well plate (1×10^5 cells/well) and treated with different concentrations of FITC-labelled peptides for different periods of time. After treatment, cells were harvested and washed twice with PBS to remove the extracellular unbound peptide and resuspended in 200 μl of PBS. FITC fluorescence intensity of internalized peptides was measured by flow cytometry. Untreated cells were used as control.

Row | Sequence | Apoptosis induction (Annexin-V) (MDA-MB231 cells [1]) | PP1 detected in LRRK2 immunoprecipitates after competition with peptide (Western blot) (LRRK2/PP1 interaction) | FITC labelled cells detected (FACS) (PBMC from CLL patients) | FITC labelled cells detected (FACS) (PBMC from healthy donors) | Fluorescence intensity of internalization (FACS) (MDA-MB231 cells [2]) | Fluorescence intensity of internalization compared with peptide 13 (PBMC from CLL patients; CLL patients PBMC, 50 μM) | Fluorescence intensity of internalization compared with peptide 13 (PBMC from healthy donors; healthy donors PBMC, 50 μM)
1 | VKKKKIKAEIKI (Synthetic construct vectorization (or carrier) peptide disclosed in WO/2016/156536) [shuttle, optimized cell penetrating peptide used alone as control, reference compound] | do not show apoptosis | PP1 is detected; also recorded: no difference | – | – | – | – | –
2 | VKKKKIKAEIKIPMGFWSRLINRLLEISPY (Synthetic construct Seq_29 fused to seq_7) [peptide 13] | strong level of apoptosis | low detected; also recorded: important decrease in PP1 detected | majority of FITC labelled cells is detected | majority of FITC labelled cells is detected | – | – | –
3 | VKKKKIKAEIKIGFWSRLINRLLEI (Synthetic construct Seq_29 fused to seq_8) [peptide 14] | strong level of apoptosis | important decrease in PP1 detected | majority of FITC labelled cells is detected | majority of FITC labelled cells is detected | higher | slightly higher fluorescence intensity | slightly higher fluorescence intensity
